According to patent publication US9845322B2 (Hoffmann-La Roche Inc., priority 2016, dated 2017):
Read-outs that look alike come from different tables or passages of the source.

Tested on: HBsAg secretion in HepG2.2.15 cells
Experiment: HBsAg assay (chemiluminescence immunoassay of secreted HBsAg in culture supernatant)
Assay type: cell-based, HBV
Conditions: concentration at which HBsAg secretion was reduced by 50% compared to the no drug control, read-out: IC50 (HBsAg assay)
Procedure, shortened: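 IC50 taken from dose-response curves as the concentration halving secreted HBsAg relative to DMSO control. Measured by chemiluminescence immunoassay of culture supernatant from constitutively HBV-expressing HepG2.2.15 cells, seeded at 1.5×10^4/well in duplicate and exposed to three-fold serial compound dilutions at 1% final DMSO.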

[1] = Hepatitis B virus, HepG2.2.15, HepG2.2.15 cells

CC1c2cnc(-c3ncccn3)nc2CCN1c1cc(F)c(F)c(OCCCCCCCCN)c1 (stereo not shown) [Example 55, 8-[2,3-difluoro-5-(5-methyl-2-pyrimidin-2-yl-7,8-dihydro-5H-pyrido[4,3-d]pyrimidin-6-yl)phenoxy]octan-1-amine] showed an IC50 [1] of 113 nM.
With COCCCN(C)C(=O)c1cc(F)cc(N2CCc3nc(-c4ncccn4)ncc3C2C)c1 (stereo not shown) [Example 178, 3-fluoro-N-(3-methoxypropyl)-N-methyl-5-(5-methyl-2-pyrimidin-2-yl-7,8-dihydro-5H-pyrido[4,3-d]pyrimidin-6-yl)benzamide] the IC50 [1] was 123 nM.
In the case of CC1c2cnc(-c3ccccn3)nc2CCN1c1cc(F)c(F)c(OCC(=O)O)c1 (stereo not shown) [Example 28, 2-[2,3-difluoro-5-[5-methyl-2-(2-pyridyl)-7,8-dihydro-5H-pyrido[4,3-d]pyrimidin-6-yl]phenoxy]acetic acid], the IC50 [1] is reported as 3080 nM.
Compound COCCCS(=O)(=O)c1cc(F)cc(N2CCc3nc(-c4ncccn4)ncc3C2C)c1 (stereo not shown) [Example 187, 6-[3-fluoro-5-(3-methoxypropylsulfonyl)phenyl]-5-methyl-2-pyrimidin-2-yl-7,8-dihydro-5H-pyrido[4,3-d]pyrimidine] has an IC50 [1] of 613 nM.
Work on COCCCNS(=O)(=O)c1cc(F)cc(N2CCc3nc(-c4ncccn4)ncc3C2C)c1 (stereo not shown) [Example 182, 3-fluoro-N-(3-methoxypropyl)-5-(5-methyl-2-pyrimidin-2-yl-7,8-dihydro-5H-pyrido[4,3-d]pyrimidin-6-yl)benzenesulfonamide] yielded an IC50 [1] of 2240 nM.
CC1c2cnc(-c3ncccn3)nc2CCN1c1cc(F)c(F)c(OCC(N)=O)c1 (single isomer, unassigned; (-)) [Example 68, (−)-2-[2,3-difluoro-5-[5-methyl-2-pyrimidin-2-yl-7,8-dihydro-5H-pyrido[4,3-d]pyrimidin-6-yl]phenoxy]acetamide] showed an IC50 (HepG2.2.15 cells) of 74 nM.
Compound CC1c2cnc(-c3ccccn3)nc2CCN1c1cc(N2CCCC2)cc(F)n1 (stereo not shown) [Example 224, 6-(6-fluoro-4-pyrrolidin-1-yl-2-pyridyl)-5-methyl-2-(2-pyridyl)-7,8-dihydro-5H-pyrido[4,3-d]pyrimidine] has an IC50 [1] of 13 nM.
In the case of CC1c2cnc(-c3ncccn3)nc2CCN1c1cc(F)cc(OCC(F)(F)F)c1 (stereo not shown) [Example 144, 6-[3-fluoro-5-(2,2,2-trifluoroethoxy)phenyl]-5-methyl-2-pyrimidin-2-yl-7,8-dihydro-5H-pyrido[4,3-d]pyrimidine], the IC50 [1] is reported as 48 nM.
CC1c2cnc(-c3ncccn3)nc2CCN1c1cc(OC2CCOCC2)cc(F)n1 (stereo not shown) [Example 172, 6-(6-fluoro-4-tetrahydropyran-4-yloxy-2-pyridyl)-5-methyl-2-pyrimidin-2-yl-7,8-dihydro-5H-pyrido[4,3-d]pyrimidine] showed an IC50 [1] of 56 nM.
CC1c2cnc(-c3ccccn3)nc2CCN1c1cc(OCCCCCC(N)=O)cc(F)n1 (stereo not shown) [Example 171, 6-[[2-fluoro-6-[5-methyl-2-(2-pyridyl)-7,8-dihydro-5H-pyrido[4,3-d]pyrimidin-6-yl]-4-pyridyl]oxy]hexanamide] gave an IC50 [1] of 18 nM.
Compound COc1cc(F)c(Cl)c(N2CCc3nc(-c4ncccn4)ncc3C2C)c1 (single isomer, unassigned; (-)) [Example 130, (−)-6-(2-chloro-3-fluoro-5-methoxy-phenyl)-5-methyl-2-pyrimidin-2-yl-7,8-dihydro-5H-pyrido[4,3-d]pyrimidine] has an IC50 [1] of 679 nM.
For COc1cc(N2CCc3nc(-c4ncccn4)ncc3C2C)cc(Cl)c1F (stereo not shown) [Example 41, 6-(3-chloro-4-fluoro-5-methoxy-phenyl)-5-methyl-2-pyrimidin-2-yl-7,8-dihydro-5H-pyrido[4,3-d]pyrimidine], the IC50 (HepG2.2.15 cells) was 38 nM.
CC1c2cnc(-c3ncccn3)nc2CCN1c1cc(F)c(F)c(OCCC(N)C(=O)O)c1 (stereo not shown) [Example 104, 2-amino-4-[2,3-difluoro-5-(5-methyl-2-pyrimidin-2-yl-7,8-dihydro-5H-pyrido[4,3-d]pyrimidin-6-yl)phenoxy]butanoic acid] showed an IC50 [1] of 19000 nM.
